For this data set the following is noted: human, microsomes, 2.5 µM.
`CNc1ccc(-c2ccccc2S(N)(=O)=O)cc1C(=O)NCCc1cc(OC)ccc1OC` yielded a CLH of 11.5 mL/h/kg.

`COc1ccc(OC)c(CCN2CCc3ccc(-c4ccccc4S(N)(=O)=O)cc3C2)c1` showed a CLH of 1.38 mL/h/kg.

The compound `COc1cc(CCn2cnc3ccc(-c4ccccc4S(=O)(=O)N(C)C)cc3c2=O)cc(OC)c1` came in with a CLH of 17.6 mL/h/kg.

Compound `NS(=O)(=O)c1ccccc1-c1ccc2ncnc(NCc3ccc(Cl)nc3)c2c1` returned a CLH of 0.024 mL/h/kg.

`COc1cc(CCn2cnc3ccc(-c4noc(C)n4)cc3c2=O)cc(OC)c1`: the CLH turned out to be 1.32 mL/h/kg.

`COc1ccc(OC)c(C(C)n2cnc3ccc(-c4ccccc4S(N)(=O)=O)cc3c2=O)c1` (stereo unspecified): the CLH was determined as 2.88 mL/h/kg.
